Source: patent US9776965B2, “Pyrrolidin-2-one and piperidin-2-one derivatives as 11-beta hydroxysteroid dehydrogenase inhibitors” (Janssen Pharmaceutica N.V., priority 2004, dated 2017)

Legend:
[1] = molecular target: T1, 11b-HSD1 (Mus musculus, UniProt P50172); assay: Cellular assay, 11b-HSD1 activity in differentiated 3T3-L1 cells; type: cell-based; details: 4 hour pre-incubation; for IC50: read-out: [C2] HSD1 cellular 3T3-L1 Score
T1 construct: Fibroblasts were differentiated into adipocytes; endogenous in cells; host or cells: differentiated 3T3-L1 cells (ATCC-CL-173)
Method: The effects on 11b-HSD1 activity was measured in differentiated 3T3-L1 cells and rat hepatocytes.
Mouse fibroblast 3T3-L1 cells (ATCC-CL-173) were seeded at a density of 16500 cells/ml in 12 well plates and grown for 7 days in DMEM medium (supplemented with 10% heat inactivated foetal calf serum, 2 mM glutamine and 25 mg gentamycin) at 37 C in a humidified 5% CO2 atmosphere. Medium was refreshed twice a week. Fibroblasts were differentiated into adipocytes at 37 C in a 5% CO2 humidified atmosphere in growth medium containing 2 μg/ml insulin, 55 μg/ml IBMX and 39.2 μg/ml dexamethasone.
Following a 4 hour pre-incubation with test compound, 0.5 μCi ^3H-cortisone or dehydrocorticosterone, was added to the cultures. One hour later, the medium was extracted on Extrelut^3-columns with 15 ml diethyl ether and the extract was analysed by HPLC as described above.
As for the enzymatic assays, the compounds to be tested were taken from a stock solution and tested at a final concentration ranging from […] to 3.10^−9M. From the thus obtained dose response curves, the pIC50 value was calculated and scored as follows; Score 1=pIC50 value<5, Score 2=pIC50 value in the range of 5 to 6, Score 3=pIC50 value>6. Some of the thus obtained results are summarized in the table below (in this table NT stands for Not Tested).

[2] = molecular target: 11b-HSD1 (Homo sapiens, UniProt P28845); assay: Enzymatic assay, 11b-HSD1 dependent conversion of cortisone into cortisol (reductase activity); type: biochemical; details: recombinant protein, 2 μM cortisone, 45 min at 37 C; read-out: [C1] HSD1-prot Reduct Score
Method: The effects of compounds on 11b-HSD1 dependent conversion of cortisone into cortisol (reductase activity) was studied in a reaction mixture containing 30 mM Tris-HCl buffer pH 7.2, 180 μM NADPH, 1 mM EDTA, 2 μM cortisone, 1 μl drug and/or solvent and 11 μg recombinant protein in a final volume of 100 μl.
All incubations were performed for 45 min at 37 C in a water bath. The reaction was stopped by adding 100 μl acetonitrile containing 20 μg corticosterone as internal standard. After centrifugation, the product formation was analysed in the supernatant by HPLC on a Hypersyl BDS-C18 column using 0.05 mM ammonium acetate/methanol (50/50) as solvent. In all of the aforementioned assays, the drugs to be tested were taken from a stock solution and tested at a final concentration ranging from […] to 3.10^−9M. From the thus obtained dose response curves, the pIC50 value was calculated and scored as follows; Score 1=pIC50 value<5, Score 2=pIC50 value in the range of 5 to 6, Score 3=pIC50 value>6. (in this table NT stands for Not Tested).

T1 sequence (P50172 whole entry): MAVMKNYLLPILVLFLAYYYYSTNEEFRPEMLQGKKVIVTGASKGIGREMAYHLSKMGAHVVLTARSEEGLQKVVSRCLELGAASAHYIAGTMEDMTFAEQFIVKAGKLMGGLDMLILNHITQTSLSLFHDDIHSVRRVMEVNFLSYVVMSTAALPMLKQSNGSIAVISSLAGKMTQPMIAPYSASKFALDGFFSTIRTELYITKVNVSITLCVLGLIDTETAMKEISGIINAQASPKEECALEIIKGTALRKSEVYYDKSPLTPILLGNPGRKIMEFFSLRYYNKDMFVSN
11b-HSD1 (Homo sapiens, UniProt P28845), sequence (P28845 whole entry): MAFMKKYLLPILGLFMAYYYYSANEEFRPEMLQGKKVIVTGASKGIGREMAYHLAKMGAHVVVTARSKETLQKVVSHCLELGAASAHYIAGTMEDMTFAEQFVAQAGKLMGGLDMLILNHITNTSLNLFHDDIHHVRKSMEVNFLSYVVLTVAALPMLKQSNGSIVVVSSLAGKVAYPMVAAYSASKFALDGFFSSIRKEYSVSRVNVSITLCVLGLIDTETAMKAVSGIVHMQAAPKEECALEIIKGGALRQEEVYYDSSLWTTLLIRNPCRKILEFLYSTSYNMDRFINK

| SMILES | IC50 [1] [µM] | IC50 [2] [µM] | [C2] HSD1 cellular 3T3-L1 Score [1] |
| --- | --- | --- | --- |
| Cc1cccc(C[C@@H]2CCN([C@@H](C)c3ccccc3)C2=O)c1 [Compound 16] | 1 to 10 | > 10 | – |
| Cc1ccccc1CC1CCCN(CCc2ccccc2)C1=O (stereo not shown) [Compound 87] | 1 to 10 | > 10 | – |
| C[C@@H](c1ccccc1)N1CC[C@@H](CCc2ccccc2)C1=O [Compound 72] | 1 to 10 | > 10 | – |
| CCCC1(Cc2ccccc2C)CCN([C@@H](C)c2ccccc2)C1=O (mixture of isomers) [Compound 146] | > 10 | > 10 | – |
| C[C@H](c1ccccc1)N1CC[C@H](Cc2cccc(Cl)c2)C1=O [Compound 47] | 1 to 10 | > 10 | – |
| COc1ccc(CC[C@H]2CCN([C@@H](C)c3ccccc3)C2=O)cc1OC [Compound 126] | > 10 | > 10 | – |
| C[C@@H](c1ccccc1)N1CCC(CCc2cccc3ccccc23)(CCc2cccc3ccccc23)C1=O [Compound 116] | > 10 | > 10 | – |
| COC[C@H](c1ccccc1)N1CC[C@H](Cc2c(Cl)cccc2Cl)C1=O [Compound 98] | 1 to 10 | > 10 | – |
| COc1cccc(C[C@H]2CCN([C@H](C)c3ccccc3)C2=O)c1 [Compound 66] | 1 to 10 | > 10 | – |
| O=C1C(Cc2cccc(O)c2)CCN1Cc1ccccc1 (stereo not shown) [Compound 53] | 1 to 10 | > 10 | – |
| COc1cc(CC2CCN(CCc3ccccc3)C2=O)ccc1OCc1ccccc1 (stereo not shown) [Compound 109] | 1 to 10 | > 10 | – |
| Cc1ccccc1C[C@@H]1CCN([C@H](C)c2ccccc2)C1=O [Compound 62] | 1 to 10 | > 10 | – |
| CC[C@]1(Cc2ccccc2C)CCN([C@H](C)c2ccccc2)C1=O [Compound 145] | > 10 | > 10 | – |
| Cc1ccc(CC2CCN(Cc3ccccc3)C2=O)cc1 (stereo not shown) [Compound 25] | < 1 | > 10 | – |
| O=C1C(Cc2cccc(Cl)c2)CCN1Cc1ccccc1 (stereo not shown) [Compound 51] | 1 to 10 | > 10 | – |
| COc1cccc(C[C@@H]2CCN([C@@H](C)c3ccccc3)C2=O)c1 [Compound 20] | > 10 | > 10 | – |

| SMILES | IC50 [1] [µM] | IC50 [2] [µM] | [C2] HSD1 cellular 3T3-L1 Score [1] |
| --- | --- | --- | --- |
| Cc1cccc(C[C@H]2CCN([C@H](C)c3ccccc3)C2=O)c1 [Compound 68] | 1 to 10 | > 10 | – |
| COc1cccc(C[C@@H]2CCN([C@H](C)c3ccccc3)C2=O)c1 [Compound 52] | 1 to 10 | > 10 | – |
| O=C1C(Cc2ccccc2)CCN1Cc1ccccc1 (stereo not shown) [Compound 61] | 1 to 10 | > 10 | – |
| O=C1[C@@H](Cc2c(Cl)cccc2Cl)CCN1[C@H](CO)c1ccccc1 [Compound 104] | 1 to 10 | > 10 | – |
| O=C1C(Cc2ccccc2)CCN1CCc1ccccc1 (stereo not shown) [Compound 34] | 1 to 10 | > 10 | – |
| CC[C@@H](c1ccccc1)N1CC[C@H](Cc2c(Cl)cccc2Cl)C1=O [Compound 94] | < 1 | > 10 | – |
| Cc1ccccc1CC1CCN(Cc2ccccc2)C1=O (stereo not shown) [Compound 55] | 1 to 10 | > 10 | – |
| O=C1C(Cc2c(Cl)cccc2Cl)CCN1[C@@H](Cc1ccccc1)c1ccccc1 (stereo partly shown) [Compound 102] | > 10 | > 10 | – |
| C[C@@H](C[C@H]1CCN([C@@H](C)c2ccccc2)C1=O)c1ccccc1 [Compound 135] | < 1 | > 10 | – |
| C[C@@H](c1ccccc1)N1CC[C@@H]([C@](C)(O)c2ccc(CCBr)cc2)C1=O [Compound 118] | 1 to 10 | > 10 | – |
| Cc1ccccc1C[C@@]1(C)CCN([C@@H](C)c2ccccc2)C1=O [Compound 143] | 1 to 10 | > 10 | – |
| C[C@H](c1ccccc1)N1CC[C@H](Cc2ccccc2C#N)C1=O [Compound 64] | 1 to 10 | > 10 | – |
| COc1ccc(C[C@@H]2CCN([C@H](C)c3ccccc3)C2=O)cc1 [Compound 50] | 1 to 10 | > 10 | – |
| COc1cc(CC2(Cc3ccc(OCc4ccccc4)c(OC)c3)CCN(CCc3ccccc3)C2=O)ccc1OCc1ccccc1 [Compound 164] | > 10 | > 10 | – |
| C[C@H](c1ccccc1)N1CC[C@@H](Cc2cccc(Cl)c2)C1=O [Compound 46] | > 10 | > 10 | – |
| O=C1C(Cc2c(Cl)cccc2Cl)CCN1CCc1ccc(F)cc1 (stereo not shown) [Compound 81] | – | > 10 | 3 (Score 3=pIC50 value>6) |

Next, values leading:

| IC50 [1] [µM] | IC50 [2] [µM] | [C2] HSD1 cellular 3T3-L1 Score [1] | SMILES |
| --- | --- | --- | --- |
| > 10 | > 10 | – | COC[C@@H](c1ccccc1)N1CC[C@@H](Cc2c(Cl)cccc2Cl)C1=O [Compound 101] |
| 1 to 10 | > 10 | – | Cc1ccccc1C[C@]1(C)CCN([C@@H](C)c2ccccc2)C1=O [Compound 142] |
| 1 to 10 | > 10 | – | Cc1cccc(C[C@@H]2CCN([C@H](C)c3ccccc3)C2=O)c1 [Compound 63] |
| 1 to 10 | > 10 | – | COc1ccc(C[C@@H]2CCN([C@@H](C)c3ccccc3)C2=O)cc1 [Compound 22] |
| 1 to 10 | 1 to 10 | – | C[C@@H](c1ccccc1)N1CC[C@@H](Cc2cccc(Cl)c2Cl)C1=O [Compound 12] |
| 1 to 10 | 1 to 10 | – | COc1ccccc1CC[C@@H]1CCN([C@@H](C)c2ccccc2)C1=O [Compound 123] |
| < 1 | 1 to 10 | – | CO[C@H](C[C@H]1CCN([C@@H](C)c2ccccc2)C1=O)c1ccccc1 [Compound 157] |
| < 1 | 1 to 10 | – | C[C@@H](c1ccccc1)N1CC[C@H](Cc2ccc3c(c2)OCO3)C1=O [Compound 152] |
| 1 to 10 | 1 to 10 | – | C[C@H](C[C@@H]1CCN([C@@H](C)c2ccccc2)C1=O)c1ccccc1 [Compound 136] |
| 1 to 10 | 1 to 10 | – | O=C1C(Cc2ccc(F)cc2Cl)CCN1CCCc1ccccc1 (stereo not shown) [Compound 112] |
| 1 to 10 | 1 to 10 | – | C[C@@H](c1ccccc1)N1CC[C@@H](Cc2cccc(Cl)c2)C1=O [Compound 18] |
| 1 to 10 | 1 to 10 | – | CO[C@H](C[C@@H]1CCN([C@@H](C)c2ccccc2)C1=O)c1ccccc1 [Compound 156] |
| 1 to 10 | 1 to 10 | – | Cc1ccccc1CC[C@@H]1CCN([C@@H](C)c2ccccc2)C1=O [Compound 127] |
| 1 to 10 | 1 to 10 | – | Cc1ccccc1CC[C@H]1CCN([C@@H](C)c2ccccc2)C1=O [Compound 128] |
| < 1 | 1 to 10 | – | Cc1ccc([C@H](O)[C@H]2CCN([C@@H](C)c3ccccc3)C2=O)c(C)c1 [Compound 91] |
| 1 to 10 | 1 to 10 | – | O=C1C(Cc2ccc(F)cc2F)CCN1CCc1ccccc1 (stereo not shown) [Compound 108] |
| 1 to 10 | 1 to 10 | – | Cc1cccc(C)c1CC1CCN(CCCc2ccccc2)C1=O (stereo not shown) [Compound 113] |
| < 1 | 1 to 10 | – | COc1ccc(C[C@H]2CCN([C@@H](C)c3ccccc3)C2=O)cc1 [Compound 21] |
| 1 to 10 | 1 to 10 | – | C[C@@H](c1ccccc1)N1CC[C@@H](CCc2cccc3ccccc23)C1=O [Compound 74] |
| > 10 | 1 to 10 | – | CC[C@H](c1ccccc1)N1CC[C@H](Cc2c(Cl)cccc2Cl)C1=O [Compound 96] |
| < 1 | 1 to 10 | – | O=C1C(Cc2cc3c(cc2Cl)OCO3)CCN1CCc1ccccc1 (stereo not shown) [Compound 86] |
| < 1 | < 1 | – | C[C@@H](c1ccccc1)N1CC[C@@H](Cc2ccc(F)cc2Cl)C1=O [Compound 151] |
| 1 to 10 | 1 to 10 | – | C[C@@H](c1ccccc1)N1CC[C@H](Cc2cccc(Cl)c2)C1=O [Compound 17] |
| < 1 | < 1 | – | C[C@@H](C[C@@H]1CCN([C@@H](C)c2ccccc2)C1=O)c1ccccc1 [Compound 134] |
| > 10 | 1 to 10 | – | O=C1C(Cc2ccc(F)cc2Cl)CCN1CCc1ccccc1 (stereo not shown) [Compound 85] |
| < 1 | 1 to 10 | – | C[C@H](c1ccccc1)N1CC[C@@H](Cc2ccccc2Cl)C1=O [Compound 40] |
| 1 to 10 | 1 to 10 | – | CC[C@H](C[C@@H]1CCN([C@@H](C)c2ccccc2)C1=O)c1ccccc1 [Compound 138] |
